Article PMC9945734 (BMC Medicine, 2023)
Values joined by “and” are separate entries in the source; they are usually repeats but may differ in a detail not shown here. Equal entries are not always repeated.

Tested on: PC-3-KQ and PC-3-KR cells
Assay: RNA-sequencing and differential gene expression
Type: cell-based, human
Parameters: CEP19 tpm_KQ_NTZ / CCNA1 tpm_KQ_NTZ / BTN3A3 tpm_KQ_NTZ / CAPSL tpm_KQ_NTZ / CELF3 tpm_KQ_NTZ / C5orf63 tpm_KQ_NTZ / tpm MSMP / tpm MYH7B / tpm CACNG8 / CNTNAP3B tpm_KQ_NTZ / IL21R tpm_KQ_NTZ / CYP8B1 tpm_KQ_NTZ / C2orf78 tpm_KQ_NTZ / CALB1 tpm_KQ_NTZ / COL4A3 tpm_KQ_NTZ / CFB tpm_KQ_NTZ / PFKFB1 tpm_KQ_NTZ / BTBD11 tpm_KQ_NTZ: scale not given here
Settings: RNA-Seq
[1] = PC-3-KQ cells with NTZ, replicates NTZ1-3, listed as NTZ

## CC(=O)Oc1ccccc1C(=O)Nc1ncc([N+](=O)[O-])s1 [Nitazoxanide]
[1]
  tpm DMPK: 0.419 and 0.3493 and 0.1665
  tpm DRP2: -0.6676 and -1.3 and -0.607
  tpm ECM2: -0.5146 (2×) and 0.2506
  tpm FAM186B: -0.5789 and -0.1828 and -0.4779
  tpm FER1L6: -0.0478 and 0.008832 and -0.09563
  tpm FLT1: 0.161 and -0.1482 and -0.7906
  tpm FSD2: -0.9288 and -1.378 and -0.8049
  tpm FTH1: 1.05 and 1.051 and 1.128
  tpm FXYD3: -0.3733 and -0.2655 and -0.4971
  tpm GALNT12: 0.1641 and 0.2605 and 0.1597
  tpm GRAMD2A: -1.217 and -0.8334 and -0.5772
  tpm HID1: 1.101 and 0.7299 and 0.9267
  tpm HPSE2: -0.4281 and -0.1645 and -0.06191
  tpm IDO1: -0.05198 and -0.1635 and 0.07694
  tpm IGDCC4: 1.025 and 0.5822 and 0.3088
  tpm INHBA: -0.4046 and -0.5562 and -0.8145
  tpm INHBB: 0.08661 and -0.02356 and -0.07924
  tpm KIAA1755: -0.4724 and -0.3852 and -0.1722
  tpm KLHDC7B: 1.013 and 1.073 and 1.158
  tpm LOC105374299: 0.8275 and 1.276 and 1.486
  tpm LOC107987158: 0.1622 and -0.3121 and -1.443
  tpm LONRF2: 0.1017 (2×) and -0.7266
  tpm MAP7D3: 0.1661 and 0.1563 and -0.001507
  tpm MEF2C: 0.3074 (2×) and -0.8164
  tpm MEOX1: -0.388 and -0.5893 and -0.8851
  tpm MINAR1: 1.487 and 0.4714 and 0.64
  tpm MSMP: -0.1946 and -0.01672 and -0.03466
  tpm MUC4: 0.5142 and 1.164 and 1.212
  tpm MYH7B: -0.4262 and -0.2568 and 0.1543
  tpm PDGFRL: 0.618 and 0.4346 and 0.4486
  tpm PLEKHA7: -0.3096 and -0.2197 and -0.3271
  tpm PLEKHG1: -0.07347 and -0.05792 and -0.2
  tpm PRRT4: 0.01578 and 0.2412 and 0.04865
  tpm RORC: 0.6069 and 0.189 and 1.342
  tpm RP1L1: -0.07855 and -0.3562 and -1.072
  tpm RPP25: 0.2387 and 0.2331 and 0.2609
  tpm SAT1: 0.7632 and 0.7179 and 0.7837
  tpm SAXO2: -1.3 and 0.5697 and 0.468
  tpm SERPINA5: 0.2889 and 0.09986 and -0.2457
  tpm SERPINB3: -1.23 and -0.7997 and -0.9984
  tpm SERPINF2: 0.3503 and 0.1655 and 0.444
  tpm SGK3: -0.2978 and 0.6129 and 0.5003
  tpm SLC22A4: -0.6184 and -1.014
  tpm SLFN11: -0.5865 and -0.5524 (2×)
  tpm SRPX: 0.5121 and 0.498 and 0.6168
  tpm STARD4: 0.9661 and 0.7143
  tpm SVEP1: -0.8267 and -1.268 and -1.176
  tpm TBX2: 0.468 and 0.2574 and 0.908
  tpm TCN1: 0.4136 and 0.08826 and 0.5034
  tpm TNF: 0.3176 and 0.1804
  tpm TNFRSF6B: -0.5827 and 0.1186 and -0.2431
  tpm TNFSF14: 1.093 and 1.162 and 1.079
  tpm TRIM31: -0.6801 and -0.02951 and -0.5211
  tpm UGT2B7: -0.4066 and -0.3815 and -0.4168
  tpm XKRX: -0.4846 and 0.05471 and 0.3317
  tpm ZNF28: 0.116 and -1.142 and -0.2155
  tpm ZNF302: -0.4799 and 0.1803 and -0.08669
PC-3-KQ cells
  AADACL3 Change (KQ-Control vs KQ-NTZ): DOWN
  AADACL3 logFC (KQ-Control vs KQ-NTZ): -1.5511
  ABCA1 Change (KQ-Control vs KQ-NTZ): DOWN
  ABCA1 logFC (KQ-Control vs KQ-NTZ): -1.1023
  ABCB4 Change (KQ-Control vs KQ-NTZ): DOWN
  ABCB4 logFC (KQ-Control vs KQ-NTZ): -1.0876
  ADORA1 Change (KQ-Control vs KQ-NTZ): DOWN
  ADORA1 logFC (KQ-Control vs KQ-NTZ): -0.6297
  ANKRD36C Change (KQ-Control vs KQ-NTZ): DOWN
  ANKRD36C logFC (KQ-Control vs KQ-NTZ): -0.823
  ANKRD63 Change (KQ-Control vs KQ-NTZ): DOWN
  ANKRD63 logFC (KQ-Control vs KQ-NTZ): -0.8191
  ANXA8L1 Change (KQ-Control vs KQ-NTZ): DOWN
  ANXA8L1 logFC (KQ-Control vs KQ-NTZ): -1.2337
  APLN Change (KQ-Control vs KQ-NTZ): DOWN
  APLN logFC (KQ-Control vs KQ-NTZ): -0.8669
  ARL10 Change (KQ-Control vs KQ-NTZ): DOWN
  ARL10 logFC (KQ-Control vs KQ-NTZ): -0.6715
  ARX logFC (KQ-Control vs KQ-NTZ): 0.8688
  ASB2 Change (KQ-Control vs KQ-NTZ): DOWN
  ASB2 logFC (KQ-Control vs KQ-NTZ): -1.5518
  ASRGL1 Change (KQ-Control vs KQ-NTZ): DOWN
  ASRGL1 logFC (KQ-Control vs KQ-NTZ): -0.6209
  BDKRB2 Change (KQ-Control vs KQ-NTZ): DOWN
  BDKRB2 logFC (KQ-Control vs KQ-NTZ): -1.3479
  BRINP2 Change (KQ-Control vs KQ-NTZ): DOWN
  BRINP2 logFC (KQ-Control vs KQ-NTZ): -0.6846
  BTBD11 Change (KQ-Control vs KQ-NTZ): DOWN
  BTBD11 logFC (KQ-Control vs KQ-NTZ): -1.0629
  C2orf78 Change (KQ-Control vs KQ-NTZ): DOWN
  C2orf78 logFC (KQ-Control vs KQ-NTZ): -0.8606
  CACNG8 Change (KQ-Control vs KQ-NTZ): DOWN
  CACNG8 logFC (KQ-Control vs KQ-NTZ): -1.0729
  CAPSL Change (KQ-Control vs KQ-NTZ): DOWN
  CAPSL logFC (KQ-Control vs KQ-NTZ): -0.8068
  CD14 Change (KQ-Control vs KQ-NTZ): DOWN
  CD14 logFC (KQ-Control vs KQ-NTZ): -2.3874
  CEP19 Change (KQ-Control vs KQ-NTZ): DOWN
  CEP19 logFC (KQ-Control vs KQ-NTZ): -0.5995
  CNTNAP3B Change (KQ-Control vs KQ-NTZ): DOWN
  CNTNAP3B logFC (KQ-Control vs KQ-NTZ): -1.4339
  COL4A6 Change (KQ-Control vs KQ-NTZ): DOWN
  COL4A6 logFC (KQ-Control vs KQ-NTZ): -0.6049
  CSF3 Change (KQ-Control vs KQ-NTZ): DOWN
  CSF3 logFC (KQ-Control vs KQ-NTZ): -0.9191
  CXCL5 Change (KQ-Control vs KQ-NTZ): DOWN
  CXCL5 logFC (KQ-Control vs KQ-NTZ): -1.0464
  DEPTOR Change (KQ-Control vs KQ-NTZ): DOWN
  DEPTOR logFC (KQ-Control vs KQ-NTZ): -0.7982
  DMC1 Change (KQ-Control vs KQ-NTZ): DOWN
  DMC1 logFC (KQ-Control vs KQ-NTZ): -0.9749
  DRP2 Change (KQ-Control vs KQ-NTZ): DOWN
  DRP2 logFC (KQ-Control vs KQ-NTZ): -1.0796
  ECM2 Change (KQ-Control vs KQ-NTZ): DOWN
  ECM2 logFC (KQ-Control vs KQ-NTZ): -0.755
  EFCAB6 Change (KQ-Control vs KQ-NTZ): DOWN
  EFCAB6 logFC (KQ-Control vs KQ-NTZ): -0.8325
  FAM43A Change (KQ-Control vs KQ-NTZ): DOWN
  FAM43A logFC (KQ-Control vs KQ-NTZ): -1.1246
  FAM83D Change (KQ-Control vs KQ-NTZ): DOWN
  FAM83D logFC (KQ-Control vs KQ-NTZ): -0.5981
  FAM186B Change (KQ-Control vs KQ-NTZ): DOWN
  FAM186B logFC (KQ-Control vs KQ-NTZ): -0.6856
  FANCI Change (KQ-Control vs KQ-NTZ): DOWN
  FANCI logFC (KQ-Control vs KQ-NTZ): -0.7453
  FANCL Change (KQ-Control vs KQ-NTZ): DOWN
  FANCL logFC (KQ-Control vs KQ-NTZ): -0.6097
  FCGBP Change (KQ-Control vs KQ-NTZ): DOWN
  FCGBP logFC (KQ-Control vs KQ-NTZ): -2.5743
  FLI1 Change (KQ-Control vs KQ-NTZ): DOWN
  FLI1 logFC (KQ-Control vs KQ-NTZ): -0.8219
  FLRT1 Change (KQ-Control vs KQ-NTZ): DOWN
  FLRT1 logFC (KQ-Control vs KQ-NTZ): -0.8174
  FLT1 Change (KQ-Control vs KQ-NTZ): DOWN
  FLT1 logFC (KQ-Control vs KQ-NTZ): -0.8
  FOXI1 Change (KQ-Control vs KQ-NTZ): DOWN
  FOXI1 logFC (KQ-Control vs KQ-NTZ): -1.9605
  FOXP3 Change (KQ-Control vs KQ-NTZ): DOWN
  FOXP3 logFC (KQ-Control vs KQ-NTZ): -1.1132
  FSD2 Change (KQ-Control vs KQ-NTZ): DOWN
  FSD2 logFC (KQ-Control vs KQ-NTZ): -1.2199
  FZD4 Change (KQ-Control vs KQ-NTZ): DOWN
  FZD4 logFC (KQ-Control vs KQ-NTZ): -1.1759
  GBX2 Change (KQ-Control vs KQ-NTZ): DOWN
  GBX2 logFC (KQ-Control vs KQ-NTZ): -0.9793
  GPR19 Change (KQ-Control vs KQ-NTZ): DOWN
  GPR19 logFC (KQ-Control vs KQ-NTZ): -0.6847
  GRAMD2A Change (KQ-Control vs KQ-NTZ): DOWN
  GRAMD2A logFC (KQ-Control vs KQ-NTZ): -1.0971
  H3C1 Change (KQ-Control vs KQ-NTZ): DOWN
  H3C1 logFC (KQ-Control vs KQ-NTZ): -0.9324
  HAS3 Change (KQ-Control vs KQ-NTZ): DOWN
  HAS3 logFC (KQ-Control vs KQ-NTZ): -1.3005
  HPSE2 Change (KQ-Control vs KQ-NTZ): DOWN
  HPSE2 logFC (KQ-Control vs KQ-NTZ): -0.9315
  HSD3B1 Change (KQ-Control vs KQ-NTZ): DOWN
  HSD3B1 logFC (KQ-Control vs KQ-NTZ): -0.7148
  IGF2BP1 Change (KQ-Control vs KQ-NTZ): DOWN
  IGF2BP1 logFC (KQ-Control vs KQ-NTZ): -0.8373
  IGFBP4 Change (KQ-Control vs KQ-NTZ): DOWN
  IGFBP4 logFC (KQ-Control vs KQ-NTZ): -1.0441
  IGSF23 Change (KQ-Control vs KQ-NTZ): DOWN
  IGSF23 logFC (KQ-Control vs KQ-NTZ): -0.7201
